Measurements reported in ChEMBL document CHEMBL4052750, “Structure-based optimization and synthesis of antiviral drug Arbidol analogues with significantly improved affinity to influenza hemagglutinin” (Bioorg Med Chem Lett, 2017).

Columns and labels:
[1] = Binding affinity to Influenza A virus (A/Hong Kong/1/1968(H3N2)) […] by biolayer interferometry analysis
[2] = Binding affinity to Influenza A virus (A/Puerto Rico/8/1934(H1N1)) PR8 hemagglutinin-1 by biolayer interferometry analysis
[3] = test system: Influenza A virus (A/Hong Kong/1/1968(H3N2)); experiment: Binding affinity to Influenza A virus (A/Hong Kong/1/1968(H3N2)) […] assessed as dissociation constant after 180 secs by biolayer interferometry analysis
[4] = test system: Influenza A virus (A/Puerto Rico/8/1934(H1N1)); experiment: Binding affinity to Influenza A virus (A/Puerto Rico/8/1934(H1N1)) PR8 hemagglutinin-1 assessed as dissociation constant after 180 secs by biolayer interferometry analysis
[5] = test system: Influenza A virus (A/Hong Kong/1/1968(H3N2)); experiment: Potency index, ratio of Kd for Arbidol to Kd for test compound for binding affinity to Influenza A virus (A/Hong Kong/1/1968(H3N2)) […] by biolayer interferometry analysis
[6] = test system: Influenza A virus (A/Puerto Rico/8/1934(H1N1)); experiment: Potency index, ratio of Kd for Arbidol to Kd for test compound for binding affinity to Influenza A virus (A/Puerto Rico/8/1934(H1N1)) PR8 hemagglutinin-1 by biolayer interferometry analysis
[7] = test system: Influenza A virus (A/Puerto Rico/8/1934(H1N1)); experiment: Binding affinity to Influenza A virus (A/Puerto Rico/8/1934(H1N1)) PR8 hemagglutinin-1 assessed as association constant after 180 secs by biolayer interferometry analysis
[8] = test system: Influenza A virus (A/Hong Kong/1/1968(H3N2)); experiment: Binding affinity to Influenza A virus (A/Hong Kong/1/1968(H3N2)) […] assessed as association constant after 180 secs by biolayer interferometry analysis

Structure (SMILES) | Kd ([1]; read-out: Kd) | Kd ([2]; read-out: Kd) | Kd [2] | further results
CCOC(=O)c1c(CSc2ccccc2)n(C)c2cc(Br)c(O)cc12 | 11 µM | 38 µM |  | 
CCOC(=O)c1c(CSc2ccc3ccccc3c2)n(C)c2cc(Br)c(O)cc12 | 45 µM | 18 µM |  | 
CCOC(=O)c1c(CSc2cccc(O)c2)n(C)c2cc(Br)c(O)c(CN(C)C)c12 |  | 0.48 to 0.55 µM |  | K [3]: 1.93 ×10⁻² /s; K [4]: 3.42 ×10⁻² /s; Ratio [5]: 1150; Ratio [6]: 98; K [7]: 7.06 ×10⁴ /M/s; K [8]: 2.41 ×10⁵ /M/s
CCOC(=O)c1c(CSc2ccccc2)n(C)c2cc(Br)c(O)c(CN3CCN(CCO)CC3)c12 | 46 µM |  | Not Active | 
CCOC(=O)c1c(CSc2cccc(N)c2)n(C)c2cc(Br)c(O)c(CN(C)C)c12 | 7.4 µM |  | Not Active | 
CCOC(=O)c1c(CSc2cccc(O)c2)n(C)c2cc(Br)c(O)cc12 | 17 µM | 75 µM |  | 
CCOC(=O)c1c(CSc2cccc(N)c2)n(C)c2cc(Br)c(O)cc12 | > 100 µM |  | Not Active | 
CCOC(=O)c1c(CSc2ccc3ccccc3c2)n(C)c2cc(Br)c(O)c(CN(C)C)c12 |  |  | Not Active | Kd [1]: Not Active
CCOC(=O)c1c(CSc2ccccc2)n(C)c2cc(Br)c(O)c(CN(C)C)c12 [UMIFENOVIR] | 92 µM | 47 µM |  | K [3]: 2.8 ×10⁻² /s; K [4]: 4.8 ×10⁻² /s; K [7]: 1 ×10³ /M/s; K [8]: 2.3 ×10² /M/s
CCOC(=O)c1c(CSc2ccccc2)n(C)c2cc(Br)c(O)c(CN3CCN(C(=O)OC(C)(C)C)CC3)c12 |  | 41 µM |  | Kd [1]: Not Active
